# Measurements: patent US9150526B2, “Biaryl-propionic acid derivatives and their use as pharmaceuticals” (SANOFI, priority 2013, dated 2015)
# Tested on: Recombinant human cathepsin A
# Test: Cathepsin A inhibitory activity (Bodipy FL-bradykinin substrate, microfluidic capillary electrophoresis)
# Assay type: biochemical
# Details: read-out: CATH A IC50
# Experimental: Pharmacological Tests a) Cathepsin a Inhibitory Activity
# Recombinant human cathepsin A (residues 29-480, with a C-terminal 10-His tag; R&D Systems, #1049-SE) was proteolytically activated with recombinant human cathepsin L (R&D Systems, #952-CY). Briefly, cathepsin A was incubated at 10 μg/ml with cathepsin L at 1 μg/ml in activation buffer (25 mM 2-(morpholin-4-yl)-ethanesulfonic acid (MES), pH 6.0, containing 5 mM dithiothreitol (DTT)) for 15 min at 37° C.
# The activated cathepsin A was diluted in assay buffer (25 mM MES, pH 5.5, containing 5 mM DTT) and mixed with the test compound (dissolved in assay buffer containing (v/v) 3% DMSO) or, in the control experiments, with the vehicle in a multiple assay plate. After incubation for 15 min at room temperature, as substrate then bradykinin carrying an N-terminal ®Bodipy FL (4,4-difluoro-5,7-dimethyl-4-bora-3a,4a-diaza-s-indacene-3-propionyl) label (JPT Peptide Technologies GmbH; dissolved in assay buffer) was added to the mixture. The final concentration of cathepsin A was 833 ng/ml and the final concentration of labeled bradykinin 2 μM. After incubation for 15 min at room temperature the reaction was stopped by the addition of stop buffer (130 mM 2-(4-(2-hydroxy-ethyl)-piperazin-1-yl)-ethanesulfonic acid, pH 7.4, containing (v/v) 0.013% ®Triton X-100, 0.13% Coating Reagent 3 (Caliper Life Sciences), 6.5% DMSO and 20 μM ebelactone B (Sigma, # E0886)).
# Uncleaved substrate and product were then separated by a microfluidic capillary electrophoresis on a LabChip® 3000 Drug Discovery System (12-Sipper-Chip; Caliper Life Sciences) and quantified by determination of the respective peak areas. Substrate turnover was calculated by dividing product peak area by the sum of substrate and product peak areas, and the enzyme activity and the inhibitory effect of the test compound thus quantified.
row,SMILES,IC50
1,COc1ccccc1-c1cccc(C(CC(=O)O)c2nccs2)c1 (stereo not drawn) [compound 17],154 nM
2,COc1ccc(C(C)(C)C)cc1-c1cccc([C@@H](CC(=O)O)c2nccs2)c1 [compound 6],3380 nM
3,COc1c(Cl)cccc1-c1cc(Cl)cc(C(CC(=O)O)c2ncc(C)s2)c1 (stereo not drawn) [compound 92],134 nM
4,COc1c(C)cccc1-c1cc(Cl)cc(C(CC(=O)O)c2ncc(C)s2)c1 (stereo not drawn) [compound 93],164 nM
5,COc1cc(C)cc(OC)c1-c1cccc(C(CC(=O)O)c2nccs2)c1 (stereo not drawn) [compound 14],66 nM
6,COc1ccc(Cl)cc1-c1cccc(C(CC(=O)O)c2nccs2)c1 (stereo not drawn) [compound 1],160 nM
7,COc1ccc(CO)cc1-c1cccc(C(CC(=O)O)c2nccs2)c1 (stereo not drawn) [compound 33],333 nM
8,COc1ccc(Cl)cc1-c1cc(Cl)cc(C(CC(=O)O)c2ncc(C)s2)c1 (stereo not drawn) [compound 8],34 nM
9,COc1ccc(OC)c(-c2cc(Cl)cc(C(CC(=O)O)c3ncc(C)s3)c2)c1OC (stereo not drawn) [compound 72],18 nM
10,COc1cccc(F)c1-c1cccc(C(CC(=O)O)c2ncc(C)s2)c1 (stereo not drawn) [compound 59],171 nM
11,COc1ccc(OC)c(-c2cccc(C(CC(=O)O)c3nccs3)c2)c1 (stereo not drawn) [compound 21],129 nM
12,COc1ccc(CO)cc1-c1cccc(C(CC(=O)O)c2ncc(C)s2)c1 (stereo not drawn) [compound 57],131 nM
13,COc1ccc(OC(F)(F)F)cc1-c1cccc(C(CC(=O)O)c2ncc(C)s2)c1 (stereo not drawn) [compound 60],269 nM
14,COc1ccc(C(C)(C)C)cc1-c1cccc([C@H](CC(=O)O)c2nccs2)c1 [compound 5],35 nM
15,COc1cccc(F)c1-c1cccc(C(CC(=O)O)c2nccs2)c1 (stereo not drawn) [compound 26],148 nM
16,CCOc1ccc(C)cc1-c1cc(Cl)cc(C(CC(=O)O)c2ncc(C)s2)c1 (stereo not drawn) [compound 86],65 nM
17,COc1cc(C)cc(OC)c1-c1cccc(C(CC(=O)O)c2ncc(C)s2)c1 (stereo not drawn) [compound 15],44 nM
18,COc1ccc(-c2cc(Cl)cc(C(CC(=O)O)c3ncc(C)s3)c2)c(OC)c1 (stereo not drawn) [compound 83],53 nM
19,O=C(O)CC(c1cccc(-c2ccccc2OC(F)(F)F)c1)c1nccs1 (stereo not drawn) [compound 43],1230 nM

row,SMILES,IC50
1,COc1ccc(C(C)C)cc1-c1cccc(C(CC(=O)O)c2nnc(C)o2)c1 (stereo not drawn) [compound 64],49 nM
2,COc1ccc(Cl)cc1-c1cccc(C(CC(=O)O)c2nc(C)c(C)s2)c1 (stereo not drawn) [compound 19],657 nM
3,COc1ccc(C(F)(F)F)cc1-c1cccc(C(CC(=O)O)c2nccs2)c1 (stereo not drawn) [compound 22],134 nM
4,COc1ccc(C(C)C)cc1-c1cc(Cl)cc(C(CC(=O)O)c2ncc(C)s2)c1 (stereo not drawn) [compound 87],93 nM
5,COc1cccc(Cl)c1-c1cc(Cl)cc(C(CC(=O)O)c2ncc(C)s2)c1 (stereo not drawn) [compound 84],53 nM
6,COc1ccc(C)cc1-c1cc(Cl)cc(C(CC(=O)O)c2ncc(C)s2)c1 (stereo not drawn) [compound 81],52 nM
7,COc1cccc(F)c1-c1cc(Cl)cc(C(CC(=O)O)c2ncc(C)s2)c1 (stereo not drawn) [compound 71],16 nM
8,COc1c(Cl)cccc1-c1cccc(C(CC(=O)O)c2nccs2)c1 (stereo not drawn) [compound 44],1280 nM
9,COc1ccc(F)c(F)c1-c1cccc(C(CC(=O)O)c2nccs2)c1 (stereo not drawn) [compound 27],156 nM
10,COc1cccc(Cl)c1-c1cccc(C(CC(=O)O)c2ncc(C)s2)c1 (stereo not drawn) [compound 58],155 nM
11,COc1ccc(C(C)(C)C)cc1-c1cccc(C(CC(=O)O)c2nccs2)c1 (stereo not drawn) [compound 4],119 nM
12,COc1ccccc1-c1ccc(OC)c(C(CC(=O)O)c2ncc(C)s2)c1 (stereo not drawn) [compound 66],4410 nM
13,COc1c(C)cccc1-c1cccc(C(CC(=O)O)c2nccs2)c1 (stereo not drawn) [compound 40],844 nM
14,Cc1cnc(C(CC(=O)O)c2cc(Cl)cc(-c3ccccc3OC(F)(F)F)c2)s1 (stereo not drawn) [compound 95],221 nM
15,COc1ccc(F)c(F)c1-c1cc(Cl)cc(C(CC(=O)O)c2ncc(C)s2)c1 (stereo not drawn) [compound 78],37 nM
16,COc1ccc(OC)c(-c2cccc(C(CC(=O)O)c3ncc(C)s3)c2)c1OC (stereo not drawn) [compound 52],56 nM
17,COc1cccc(C#N)c1-c1cc(Cl)cc(C(CC(=O)O)c2ncc(C)s2)c1 (stereo not drawn) [compound 88],103 nM
18,COc1ccc(C(C)C)cc1-c1cccc(C(CC(=O)O)c2ncc(C)s2)c1 (stereo not drawn) [compound 56],97 nM
19,COc1cccc(OC(C)C)c1-c1cccc(C(CC(=O)O)c2nccs2)c1 (stereo not drawn) [compound 28],165 nM

# Second part, the compound after the results:
row,IC50,SMILES
1,25 nM,COc1ccc(C(C)C)cc1-c1cc(Cl)cc(C(CC(=O)O)c2nnc(C)o2)c1 (stereo not drawn) [compound 153]
2,1030 nM,COc1ccc(C(C)C)cc1-c1cncc(C(CC(=O)O)c2nnc(C)o2)c1 (stereo not drawn) [compound 183]
3,17 nM,COc1ccc(C(C)(C)C)cc1-c1cc(C(CC(=O)O)c2nnc(C)o2)cc(C(F)(F)F)c1 (stereo not drawn) [compound 203]
4,4 nM,COc1ccc(C(C)(C)C#N)cc1-c1cc(F)cc(C(CC(=O)O)c2nnc(C)o2)c1 (stereo not drawn) [compound 222]
5,44 nM,COc1ccc(C(C)C)cc1-c1cc(F)cc(C(CC(=O)O)c2nnc(C)o2)c1 (stereo not drawn) [compound 160]
6,410 nM,COc1c(C)cccc1-c1cc(F)cc(C(CC(=O)O)c2ncc(C)s2)c1 (stereo not drawn) [compound 128]
7,3900 nM,COc1cccc(F)c1-c1cncc(C(CC(=O)O)c2nnc(C)o2)c1 (stereo not drawn) [compound 195]
8,73 nM,COc1cccc(CO)c1-c1cc(C(CC(=O)O)c2nnc(C)o2)cc(C(F)(F)F)c1 (stereo not drawn) [compound 219]
9,17 nM,COc1cccc(OC)c1-c1cccc(C(CC(=O)O)c2nnc(C)o2)c1 (stereo not drawn) [compound 135]
10,104 nM,CCOc1ccccc1-c1cc(F)cc(C(CC(=O)O)c2nnc(C)o2)c1 (stereo not drawn) [compound 175]
11,243 nM,Cc1nnc(C(CC(=O)O)c2cccc(-c3ccccc3OC(F)(F)F)c2)o1 (stereo not drawn) [compound 148]
12,56 nM,COc1cccc(F)c1-c1cc(F)cc(C(CC(=O)O)c2ncc(C)s2)c1 (stereo not drawn) [compound 101]
13,5260 nM,COc1cccc(C(=O)N2CCCC2)c1-c1cc(F)cc(C(CC(=O)O)c2nnc(C)o2)c1 (stereo not drawn) [compound 174]
14,14 nM,CCOc1ccccc1-c1cc(C(CC(=O)O)c2nnc(C)o2)cc(C(F)(F)F)c1 (stereo not drawn) [compound 210]
15,60 nM,COc1ccc(F)cc1-c1cccc(C(CC(=O)O)c2nnc(C)o2)c1 (stereo not drawn) [compound 139]
16,7140 nM,COc1ccc(-c2cncc(C(CC(=O)O)c3nnc(C)o3)c2)c(OC)c1 (stereo not drawn) [compound 194]
17,3560 nM,COc1cccc(Cl)c1-c1cncc(C(CC(=O)O)c2nnc(C)o2)c1 (stereo not drawn) [compound 199]
18,12 nM,COc1ccc(F)cc1-c1cc(C(CC(=O)O)c2nnc(C)o2)cc(C(F)(F)F)c1 (stereo not drawn) [compound 218]
19,6260 nM,COc1ccc(C(C)C)cc1-c1cccc([C@H](CC(=O)O)c2nnc(C)o2)c1 [compound 108]

row,IC50,SMILES
1,33 nM,COc1ccc(-c2cc(Cl)cc(C(CC(=O)O)c3nnc(C)o3)c2)c(OC)c1 (stereo not drawn) [compound 172]
2,452 nM,COc1ccc(C(C)(C)C)cc1-c1cncc(C(CC(=O)O)c2nnc(C)o2)c1 (stereo not drawn) [compound 182]
3,400 nM,COc1cccc(CO)c1-c1cc(F)cc(C(CC(=O)O)c2nnc(C)o2)c1 (stereo not drawn) [compound 167]
4,96 nM,COc1cccc(Cl)c1-c1cc(F)cc(C(CC(=O)O)c2ncc(C)s2)c1 (stereo not drawn) [compound 105]
5,137 nM,COc1ccc(-c2cccc(C(CC(=O)O)c3nnc(C)o3)c2)c(OC)c1 (stereo not drawn) [compound 147]
6,35 nM,COc1cc(F)ccc1-c1cc(C(CC(=O)O)c2nnc(C)o2)cc(C(F)(F)F)c1 (stereo not drawn) [compound 200]
7,275 nM,COc1ccc(OC(F)(F)F)cc1-c1cc(F)cc(C(CC(=O)O)c2ncc(C)s2)c1 (stereo not drawn) [compound 124]
8,109 nM,COc1ccc(S(C)(=O)=O)cc1-c1cc(Cl)cc(C(CC(=O)O)c2nnc(C)o2)c1 (stereo not drawn) [compound 170]
9,8 nM,COc1cccc(F)c1-c1cc(C(CC(=O)O)c2nnc(C)o2)cc(C(F)(F)F)c1 (stereo not drawn) [compound 212]
10,124 nM,COc1ccc(C(C)(C)C)cc1-c1cc(F)cc(C(CC(=O)O)c2ncc(C)s2)c1 (stereo not drawn) [compound 113]
11,130 nM,COc1ccc(S(C)(=O)=O)cc1-c1cc(C(CC(=O)O)c2nnc(C)o2)cc(C(F)(F)F)c1 (stereo not drawn) [compound 215]
12,446 nM,COc1cccc(C#N)c1-c1cc(F)cc(C(CC(=O)O)c2nnc(C)o2)c1 (stereo not drawn) [compound 163]
13,17 nM,COc1ccc(C)cc1-c1cc(Cl)cc(C(CC(=O)O)c2nnc(C)o2)c1 (stereo not drawn) [compound 169]
14,67 nM,COc1cccc(F)c1-c1cc(F)cc(C(CC(=O)O)c2nnc(C)o2)c1 (stereo not drawn) [compound 179]
15,1460 nM,COc1cccc(C(=O)N2CCCC2)c1-c1cc(C(CC(=O)O)c2nnc(C)o2)cc(C(F)(F)F)c1 (stereo not drawn) [compound 216]
16,325 nM,COc1cccc(CO)c1-c1cccc(C(CC(=O)O)c2nnc(C)o2)c1 (stereo not drawn) [compound 150]
17,4760 nM,COc1ccc(OC(F)(F)F)cc1-c1cncc(C(CC(=O)O)c2nnc(C)o2)c1 (stereo not drawn) [compound 197]
18,61 nM,COc1ccccc1-c1cccc(C(CC(=O)O)c2nnc(C)o2)c1 (stereo not drawn) [compound 140]
